Experimental data reported in patent publication US9738603B2, “Complex of glucose derivative and proline, crystal, preparation method and use” (SHANGHAI YINGLI PHARMACEUTICAL CO., LTD., priority 2012, dated 2017).
Entries after “also recorded” stand apart in the source; their conditions may differ.

Assay: Dynamic vapor sorption test
Type: physicochemical
Conditions: 25° C.; for weight increased finally: 95% RH; for sensitivity to moisture / hygroscopicity: dynamic vapor sorption isotherm, 0-95% RH
Protocol: 2. Parameters of dynamic vapor sorption test: The instrument: a dynamic moisture absorption analyzer (DVS Advantage, Surface Measurement System Ltd); Experimental temperature: 25° C.; Adsorption range: 0-95% relative humidity; Step interval: 5% relative humidity; Balance standard of weight gain: less than 0.01% weight change in 5 minutes; Longest time of balance: 120 minutes.

weight increased finally	moisture absorbed (relative humidity 50%)	moisture absorbed (weight gain against dry weight) (relative humidity increased from 0% to 85% RH) [%]	Compound	sensitivity to moisture / hygroscopicity
14.72%	about 4.8%		OC[C@H]1O[C@@H](c2ccc(Cl)c(Cc3ccc(OCC4(F)COC4)cc3)c2)[C@H](O)[C@@H](O)[C@@H]1O [compound A, (2S,3R,4R,5S,6R)-2-(4-chloro-3-(4-((3-fluorooxetan-3-yl)methoxy)benzyl)phenyl)-6-(hydroxymethyl)tetrahydro-2H-pyran-3,4,5-triol]	sensitive to moisture
about 9.967%		2.174	OC[C@H]1O[C@@H](c2ccc(Cl)c(Cc3ccc(OCC4(F)COC4)cc3)c2)[C@H](O)[C@@H](O)[C@@H]1O [eutectic crystal of the complex formed by compound A and L-p] [complex of (2S,3R,4R,5S,6R)-2-(4-chloro-3-(4-((3-fluorooxetan-3-yl)methoxy)benzyl)phenyl)-6-(hydroxymethyl)tetrahydro-2H-pyran-3,4,5-triol and bis(L-proline)]	not very sensitive to moisture; also recorded: low hygroscopicity
